Tests used:
[1] = tested on: MV-4-11 (biphenotypic B myelomonocytic leukemia); experiment: Antiproliferative activity in vitro, MTT assay; format: cell-based, human; settings: Homo sapiens, MV4-11, 72 h exposure, read-out: IC50 ± SD MV-4-11
[2] = tested on: MCF 10A (breast cells); experiment: Antiproliferative activity in vitro, SRB assay; format: cell-based, human; settings: Homo sapiens, MCF-10A; 72 h exposure, SRB; normal cell line; read-out: IC50 ± SD MCF 10A
[3] = tested on: MCF7 (breast carcinoma); experiment: Antiproliferative activity in vitro, SRB assay; format: cell-based, human; settings: Homo sapiens, MCF7; 72 h exposure, SRB; read-out: IC50 ± SD MCF7
[4] = tested on: HLMEC cultures; experiment: Stability of flavonoids in the cell cultures, HPLC; format: in vitro ADME, human; settings: 100 μg/mL, 3 h of incubation
Protocol: (§1) Flavonoids dissolved (as described in Section 2.4) were added to the HLMEC and MCF7 line cultures, and the final concentration was 100 μg/mL. The cultures were incubated in 96-well plates for 3 h and transferred to microtubes containing 400 µL of cold methanol (−20 °C) and kept at −20 °C for 1 h. After centrifugation at 12,000× g for 10 min, samples were analyzed by HPLC. To determine the stability of flavonoids in HLMEC and MCF7 culture media (not containing cells) under analogous conditions, control experiments were also carried out.

[5] = tested on: MCF7 cultures; experiment: Stability of flavonoids in the cell cultures, HPLC; format: in vitro ADME, human; settings: 100 μg/mL, 3 h of incubation
Protocol: as §1

[6] = Stability of flavonoids in culture media without cells (control), HPLC; format: physicochemical; settings: HLMEC and MCF7 culture media not containing cells, 3 h
Protocol: as §1

Structure (SMILES)	IC50 [1] [µM]	IC50 [2] [µM]	IC50 [3] [µM]	compound remaining after incubation in HLMEC cultures [4]	compound remaining after incubation in MCF7 cultures [5]	compound remaining in culture media without cells [6]
O=c1cc(-c2ccc(O)cc2)oc2cc(O)cc(O)c12 [Compound 2, apigenin]	8.18 ± 2.76	35.7 ± 11.9	22.5 ± 1.29	over 98%	over 98%	over 98%
O=C1C[C@@H](c2ccc(O)cc2)Oc2cc(O)cc(O)c21 [Compound 6, naringenin]	146 ± 19.1	185 ± 23.2	215 ± 32.3	over 98%	over 98%	over 98%

From PMC6680932, “Structure–Antioxidant–Antiproliferative Activity Relationships of Natural C7 and C7–C8 Hydroxylated Flavones and Flavanones” (Antioxidants, 2019)
